Data on 9 molecules can be found in PMC3259259 (Chemical Research in Toxicology, 2011).

Read-outs that look alike come from different tables or passages of the source.

Data set [1] in a line: Single-turnover. On the set-up: species or system [13, 20]. The note with it: read-out: Kd (incoming nucleotide, Pol•DNA complex), Pol β, 37 °C.
A short description of data set [2]: Single-turnover. On the set-up: species or system [13, 20]. As to conditions: read-out: Kd (incoming nucleotide, Pol•DNA complex), Pol λ, 37 °C.
The nature of data set [3]: Single-turnover. On the set-up: species or system [13, 20]. The note with it: read-out: Kd (incoming nucleotide, Pol•DNA complex), Pol η, 37 °C.
Data set [4] can be described thus: Single-turnover. On the set-up: species or system [13, 20]. The note with it: Pol κ; for Kd: read-out: Kd (incoming nucleotide, Pol•DNA complex), 37 °C.
Data set [5] is described as follows: Single-turnover. On the set-up: species or system [13, 20]. As to conditions: Pol ι; for Kd: read-out: Kd (incoming nucleotide, Pol•DNA complex), 37 °C.
Data set [6] is described as follows: Single-turnover. On the set-up: species or system [13, 20]. As to conditions: Rev1; for Kd: read-out: Kd (incoming nucleotide, Pol•DNA complex).
The nature of data set [7]: Single-turnover kinetic assays, summary over the non-canonical human pols. On the set-up: species or system [13, 20].
The conditions of data set [8]: read-out: Kd (incoming nucleotide, Pol•DNA complex); HIV-1 RT; opposite template dC; 37 °C; cited from earlier work.
For data set [9] the following is noted: read-out: Kd (incoming nucleotide, Pol•DNA complex), Pol β, 37 °C, cited from earlier work.
The conditions of data set [10]: read-out: Kd (incoming nucleotide, Pol•DNA complex), Pol λ, 37 °C, cited from earlier work.
The conditions of data set [11]: read-out: Kd (incoming nucleotide, Pol•DNA complex), Pol η, 37 °C, cited from earlier work.
The conditions of data set [12]: read-out: Kd (incoming nucleotide, Pol•DNA complex), Pol κ, 37 °C, cited from earlier work.
The conditions of data set [13]: Pol ι, 37 °C, cited from earlier work; for Kd: read-out: Kd (incoming nucleotide, Pol•DNA complex).
For data set [14] the following is noted: Rev1, 37 °C, cited from earlier work; for Kd: read-out: Kd (incoming nucleotide, Pol•DNA complex).
The conditions of data set [15]: read-out: Kd (incoming nucleotide, Pol•DNA complex), Pol γ, 37 °C, cited from earlier work.
For data set [16] the following is noted: Pols β, λ, η, ι, κ, Rev1; cited from earlier work.
For data set [17] the following is noted: read-out: Kd (incoming nucleotide, Pol•DNA complex); T7 exo; opposite template dT; 37 °C; cited from earlier work.

What is called Kd is the free concentration of one partner at which half of the binding sites on the other are occupied at equilibrium, for simple one-to-one binding. As for `C=C1[C@H](COP(=O)(O)OP(=O)(O)OP(=O)(O)O)[C@@H](O)C[C@@H]1n1cnc2c(=O)[nH]c(N)nc21` [ETV-TP, entecavir 5′-triphosphate], the Kd in the data set “Single-turnover [1]” (opposite template dC) is 0.26 ± 0.04 µM; in “Single-turnover [2]” (opposite template dC), 0.09 ± 0.02 µM; in the data set “Single-turnover [3]” (opposite template dC), 2.4 ± 0.4 µM; in the data set “Single-turnover [4]” (opposite template dC), 4.2 ± 0.1 µM; in the data set “Single-turnover [5]” (opposite template dC), 33 ± 5 µM; in “Single-turnover [6]” (opposite template dC, 37 °C), 56 ± 10 µM. The Kd in data set [8] was 2.23 ± 0.67 µM. For the same molecule, in [7] (Pols β, λ, η, ι, κ, Rev1), the “Rate of incorporation slower than dGTP, on average” value came out at 120 fold. The “Binding affinity tighter than dGTP, on average” value in [7] (except for Rev1) was “approximately 20 fold”.
Consider `Nc1ccn([C@H]2CS[C@@H](COP(=O)(O)OP(=O)(O)OP(=O)(O)O)O2)c(=O)n1` [L-3TC-TP, β-L-2′,3′-dideoxy-3′-thiacytidine 5′-triphosphate], for which the Kd in data set [9] (opposite template dG) was 0.18 ± 0.02 µM; in data set [10] (opposite template dG) it was 0.106 ± 0.01 µM; in data set [11] (opposite template dG) it was 3.3 ± 0.3 µM; in [12] (opposite template dG) it was 4 ± 0.5 µM; in data set [13] (opposite template dG), 96 ± 8 µM; in data set [14] (opposite template dG), 1.04 ± 0.1 µM. The Kd in [15] (opposite template dG) was 9.2 ± 0.9 µM. Also, the “Decrease of Kd compared to dCTP, on average” value in data set [16] is listed as 6 fold.
Take `Cc1cn([C@@H]2C[C@@H](O)[C@H](COP(=O)(O)OP(=O)(O)OP(=O)(O)O)O2)c(=O)[nH]c1=O` [L-TBV-TP, β-L-2′-deoxythymidine 5′-triphosphate]: the Kd in the data set “Single-turnover [1]” (opposite template dA) is 11 ± 1 µM; in “Single-turnover [2]” (opposite template dA), 53 ± 6 µM; in “Single-turnover [3]” (opposite template dA), 400 ± 100 µM; in “Single-turnover [4]” (opposite template dA), 90 ± 20 µM; in “Single-turnover [5]” (opposite template dA), 100 ± 30 µM. In addition, the “Kd (incoming nucleotide, Pol•DNA complex)” value in the data set “Single-turnover [6]” (opposite template dA, 37 °C) was “No observed incorporation”. Also, the “Selection factors, range over the non-canonical human pols” value in [7] (Pols β, λ, η, ι, κ, Rev1, analog vs its natural dNTP, 37 °C) is “greater than 8,000”. In data set [7] (pols other than Rev1), the “Binding to the Pol•DNA complex weakened compared to dTTP, on average” value came out at 10 fold.
Turning to `Nc1ncnc2c1ncn2CCOCP(=O)(O)OP(=O)(O)OP(=O)(O)O` [PMEA-DP, diphosphate of 9-[2-(phosphonomethoxy)ethyl]adenine], the Kd in “Single-turnover [1]” (opposite template dT) was 65 ± 6 µM; in “Single-turnover [2]” (opposite template dT (21-19C-41merTG)), 4.5 ± 0.3 µM; in “Single-turnover [3]” (opposite template dT) it was 55 ± 18 µM; in “Single-turnover [4]” (opposite template dT) it was 23 ± 3 µM; in the data set “Single-turnover [5]” (opposite template dT) it was 180 ± 40 µM; in the data set “Single-turnover [6]” (opposite template dT, 37 °C), 120 ± 20 µM. For the same molecule, the “Decrease of rate of incorporation relative to dATP” value is given as 60 fold in “Single-turnover [4]” (opposite template dT), 30 fold in the data set “Single-turnover [5]” (opposite template dT) and 4 fold in “Single-turnover [6]” (opposite template dT). For the same molecule, the “Ground-state binding affinity (1/Kd) weaker than dATP” value in “Single-turnover [4]” (opposite template dT) stood at 3 fold; in the data set “Single-turnover [6]” (opposite template dT), 60 fold. Further, the “Ground-state binding affinity (1/Kd) relative to dATP” value in the data set “Single-turnover [5]” (opposite template dT) is on record as “unchanged”.
For the molecule `CC(Cn1cnc2c(N)ncnc21)OCP(=O)(O)OP(=O)(O)OP(=O)(O)O` (stereo not drawn) [PMPA-DP, diphosphate of 9-[2-(phosphonomethoxy)propyl]adenine], the Kd in data set [9] (opposite template dT) is 50 ± 10 µM; in data set [10] (opposite template dT), 3.7 ± 0.9 µM; in data set [11] (opposite template dT) it was 90 ± 10 µM; in data set [12] (opposite template dT), 3000 ± 2000 µM; in data set [15] (opposite template dT), 40.3 ± 5.7 µM; in data set [17], 268 ± 39 µM. The “Kd (incoming nucleotide, Pol•DNA complex)” value in [13] (opposite template dT) and in data set [14] (opposite template dT) was “No observed incorporation” in each case. Besides, the “kp (maximum rate of incorporation)” value in data set [13] (opposite template dT) and in data set [14] (opposite template dT) was “too inefficient to be observed” each time.
For `Nc1ncnc2c1ncn2[C@H]1C[C@H](O)[C@@H](COP(=O)(O)OP(=O)(O)OP(=O)(O)O)O1` [dATP], the Kd in data set [9] (opposite template dT) is 9.2 ± 1 µM; in [10] (opposite template dT), 0.9 ± 0.3 µM; in data set [11] (opposite template dT), 130 ± 30 µM; in [12] (opposite template dT), 7 ± 1 µM; in data set [13] (opposite template dT) it was 260 ± 40 µM; in data set [14] (opposite template dT), 2 ± 0.3 µM. Moreover, the figures for the Kd in [15] (opposite template dT) and in [17] were 0.8 ± 0.1 µM and 8 ± 2 µM, respectively.
Regarding `Nc1ccn([C@H]2C[C@H](O)[C@@H](COP(=O)(O)OP(=O)(O)OP(=O)(O)O)O2)c(=O)n1` [dCTP], the Kd in data set [9] (opposite template dG) was 0.71 ± 0.04 µM; in [10] (opposite template dG) it was 0.9 ± 0.1 µM; in [11] (opposite template dG), 25 ± 4 µM; in data set [12] (opposite template dG), 32 ± 5 µM; in data set [13] (opposite template dG), 50 ± 5 µM; in data set [14] (opposite template dG), 2.2 ± 0.3 µM. The Kd in [15] (opposite template dG) is 1.1 ± 0.1 µM.
As for `Nc1nc2c(ncn2[C@H]2C[C@H](O)[C@@H](COP(=O)(O)OP(=O)(O)OP(=O)(O)O)O2)c(=O)[nH]1` [dGTP], the Kd is 8.7 ± 0.4 µM in “Single-turnover [1]” (opposite template dC); 80 ± 10 µM in “Single-turnover [3]” (opposite template dC); 10.6 ± 0.9 µM in “Single-turnover [4]” (opposite template dC); 141 ± 8 µM in “Single-turnover [5]” (opposite template dC); 3.9 ± 0.8 µM in the data set “Single-turnover [6]” (opposite template dC, 37 °C); 2.1 ± 0.3 µM in data set [10] (opposite template dC). The Kd in data set [8] is 1.76 ± 0.51 µM.
For the molecule `Cc1cn([C@H]2C[C@H](O)[C@@H](COP(=O)(O)OP(=O)(O)OP(=O)(O)O)O2)c(=O)[nH]c1=O` [dTTP], the Kd in data set [9] (opposite template dA) was 3.5 ± 0.5 µM; in data set [10] (opposite template dA) it was 2.6 ± 0.4 µM; in data set [11] (opposite template dA), 41 ± 5 µM; in [12] (opposite template dA), 11 ± 0.5 µM; in [13] (opposite template dA) it was 13 ± 1 µM; in data set [14] (opposite template dA) it was 6 ± 1 µM.
